Results from article PMC7862066, “A novel UBE2T inhibitor suppresses Wnt/β-catenin signaling hyperactivation and gastric cancer progression by blocking RACK1 ubiquitination” (Oncogene, 2020).

Molecular target: T1, UBE2T (Homo sapiens, UniProt Q9NPD8)
T1 construct: fluorescently labelled UBE2T protein for MST
Test: microscale thermophoresis
Format: binding
Conditions: fluorescently labelled UBE2T; compound titrated 31 nM to 500 μM

T1 sequence (Q9NPD8 whole entry): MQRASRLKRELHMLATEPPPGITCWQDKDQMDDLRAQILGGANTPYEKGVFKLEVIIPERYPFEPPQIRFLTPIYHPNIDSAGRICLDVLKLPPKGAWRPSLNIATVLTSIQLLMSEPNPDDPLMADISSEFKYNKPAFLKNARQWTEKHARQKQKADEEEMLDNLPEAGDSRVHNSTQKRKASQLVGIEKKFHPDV

Kd: 50.5 µM
SMILES: NS(=O)(=O)c1ccc(NC(=O)c2c(O)c3c4c(sc3[nH]c2=O)CCCC4)cc1 [M435-1279]
